Measurements: ChEMBL document CHEMBL1268858, “Cytotoxic Hexacyclic Triterpene Acids from Euscaphis japonica” (J Nat Prod, 2010)
pIC50: −log10 of the molar value.

How the values were obtained:
MCF7 [1] = test: Cytotoxicity against human MCF7 cells at 10 uM after 48 hrs; type: functional
NCI-H460 [2] = test: Cytotoxicity against human NCI-H460 cells at 10 uM after 48 hrs; type: functional
HT-29 [3] = test: Cytotoxicity against human HT-29 cells at 10 uM after 48 hrs; type: functional
CCRF-CEM [4] = test: Cytotoxicity against human CEM cells at 10 uM after 48 hrs; type: functional
[5] = Cytotoxicity against human fibroblast cells at 10 uM after 48 hrs; type: cell-based
MCF7 [6] = test: Cytotoxicity against human MCF7 cells after 48 hrs; type: functional, cell-based; details: MCF7, 48 h
NCI-H460 [7] = test: Cytotoxicity against human NCI-H460 cells after 48 hrs; type: functional, cell-based; details: NCI-H460, 48 h
HT-29 [8] = test: Cytotoxicity against human HT-29 cells after 48 hrs; type: functional, cell-based; details: HT-29, 48 h
CCRF-CEM [9] = test: Cytotoxicity against human CEM cells after 48 hrs; type: functional, cell-based

Row | Compound | Activity (MCF7 [1]) [%] | Activity (NCI-H460 [2]) [%] | Activity (HT-29 [3]) [%] | Activity (CCRF-CEM [4]) [%] | Activity [5] [%] | pIC50 (MCF7 [6]) | pIC50 (NCI-H460 [7]) | pIC50 (HT-29 [8]) | pIC50 (CCRF-CEM [9])
1 | C[C@@H]1CC[C@]2(C(=O)O)CC[C@]3(C)C(=CC[C@@H]4[C@@]5(C)C[C@H](O)[C@H](O)C(C)(C)[C@@H]5CC[C@]43C)[C@@H]2[C@]1(C)O | 70 | 78 | 74 | 73 | 107 |  |  |  | 
2 | C[C@@H]1CC[C@]2(C(=O)O)CC[C@]3(C)C(=CC[C@@H]4[C@@]5(C)CC[C@H](O)[C@@](C)(C=O)[C@@H]5CC[C@]43C)[C@@H]2[C@]1(C)O | 93 | 103 | 91 | 88 | 99 |  |  |  | 
3 | C[C@H]1[C@H](C)CC[C@]2(C(=O)O)CC[C@]3(C)C(=CC[C@@H]4[C@@]5(C)C[C@@H](O)[C@H](O)C(C)(C)[C@@H]5CC[C@]43C)[C@H]12 [COROSOLIC ACID] | 75 | 89 | 68 | 33 | 109 | < 5.00 | < 5.00 | < 5.00 | 5.49
4 | COc1cccc2c1C(=O)c1c(O)c3c(c(O)c1C2=O)C[C@@](O)(C(=O)CO)C[C@@H]3O[C@H]1C[C@H](N)[C@H](O)[C@H](C)O1 [DOXORUBICIN] |  |  |  |  |  |  | 5.22 | 5.19 | 5.50
5 | C[C@@H]1CC[C@]2(C(=O)O)CC[C@]34C[C@]3(C=C[C@@H]3[C@@]5(C)CC[C@H](O)C(C)(C)[C@@H]5CC[C@]34C)[C@@H]2[C@]1(C)O [EUSCAPHIC ACID A] | 85 | 62 | 87 | 83 | 100 |  |  |  | 
6 | C[C@@H]1CC[C@]2(C(=O)O)CC[C@]34C[C@]3(C=C[C@@H]3[C@@]5(C)CC[C@H](O)[C@@](C)(CO)[C@@H]5CC[C@]34C)[C@@H]2[C@]1(C)O [EUSCAPHIC ACID B] | 84 | 99 | 93 | 80 | 109 |  |  |  | 
7 | C[C@@H]1CC[C@]2(C(=O)O)CC[C@]34C[C@]3(C=C[C@@H]3[C@@]5(C)C[C@@H](O)[C@@H](O)C(C)(C)[C@@H]5CC[C@]34C)[C@@H]2[C@]1(C)O [EUSCAPHIC ACID C] | 10 | 6 | 1 | 19 | 119 | 4.80 | 5.60 | 4.84 | 4.18
8 | C[C@@H]1CC[C@]2(C(=O)O)CC[C@]34C[C@]3(C=C[C@@H]3[C@@]5(C)C[C@@H](O)[C@H](O)C(C)(C)[C@@H]5CC[C@]34C)[C@@H]2[C@]1(C)O [EUSCAPHIC ACID D] | 41 | 24 | 13 | 55 | 111 | 5.44 | 4.87 | 4.46 | 5.05
9 | C[C@H]1[C@H](C)CC[C@]2(C(=O)O)CC[C@]34C[C@]3(C=C[C@@H]3[C@@]5(C)C[C@@H](O)[C@H](O)C(C)(C)[C@@H]5CC[C@]34C)[C@H]12 [EUSCAPHIC ACID E] | 90 | 91 | 86 | 87 | 110 |  |  |  | 
10 | C=C1[C@H](C)CC[C@]2(C(=O)O)CC[C@]34C[C@]3(C=C[C@@H]3[C@@]5(C)C[C@@H](O)[C@H](O)C(C)(C)[C@@H]5CC[C@]34C)[C@H]12 [EUSCAPHIC ACID F] | 76 | 81 | 87 | 86 | 115 |  |  |  | 
11 | C[C@@H]1CC[C@]2(C(=O)O)CC[C@]3(C)C(=CC[C@@H]4[C@@]5(C)C[C@@H](O)[C@@H](O)C(C)(C)[C@@H]5CC[C@]43C)[C@@H]2[C@]1(C)O [EUSCAPHIC ACID] | 85 | 104 | 85 | 89 | 95 |  |  |  | 
12 | C[C@@H]1CC[C@]2(C(=O)O)CC[C@]3(C)C(=CC[C@@H]4[C@@]5(C)CC[C@H](O)C(C)(C)[C@@H]5CC[C@]43C)[C@@H]2[C@]1(C)O [POMOLIC ACID] | 79 | 82 | 91 | 92 | 93 |  |  |  | 
13 | C[C@@H]1CC[C@]2(C(=O)O)CC[C@]3(C)C(=CC[C@@H]4[C@@]5(C)CC[C@H](O)[C@@](C)(CO)[C@@H]5CC[C@]43C)[C@@H]2[C@]1(C)O [ROTUNDIC ACID] | 78 | 85 | 101 | 106 | 92 |  |  |  | 
14 | C[C@@H]1CC[C@]2(C(=O)O)CC[C@]3(C)C(=CC[C@@H]4[C@@]5(C)CC[C@H](O)[C@](C)(CO)[C@@H]5CC[C@]43C)[C@@H]2[C@]1(C)O [ROTUNGENIC ACID] | 98 | 106 | 91 | 97 | 99 |  |  |  | 
15 | C[C@@H]1CC[C@]2(C(=O)O)CC[C@]3(C)C(=CC[C@@H]4[C@@]5(C)C[C@@H](O)[C@H](O)C(C)(C)[C@@H]5CC[C@]43C)[C@@H]2[C@]1(C)O [TOMENTIC ACID] | 85 | 88 | 86 | 93 | 114 |  |  |  | 
